Results taken from US20260285849A1, “METHYLOPHIOPOGONONE A DERIVATIVE, AND PREPARATION AND USE THEREOF” (INSTITUTE OF MATERIA MEDICA, CHINESE ACADEMY OF MEDICAL …, priority 2022, published 2026).
Like-named read-outs stand apart in the source and are kept apart here. Marks after values point to notes of the source that are not given here.

Experiments:
[1] = system: mice with isoproterenol (ISO)-induced ischemic heart disease; assay: ISO-induced ischemic heart disease mouse model: serum CK-MB (ELISA); type: in vivo
Protocol: (§1) Male C57BL/6 mice were allowed to acclimate to the environment and then randomly divided into 9 groups, namely the blank control group, the ISO model group, the ISO+diltiazem 20 mg/kg positive control drug group, the ISO+Formula I (0.1, 0.5, 2 mg/kg) groups, and the ISO+Formula II (0.1, 0.5, 2 mg/kg) groups. Mice in the drug administration groups were intragastrically administered the corresponding doses of Formula I and Formula II compounds once a day at the same time. Mice in the positive drug diltiazem group were intragastrically administered the corresponding dose of diltiazem once a day. Mice in the blank control group and the model group were given the same amount of solvent (0.5% CMC-Na). The administration volume was 10 mL/kg, and the administration was continuous for 11 days.
(§2) From the 4th to the 10th day of drug administration, ISO modeling was carried out. The blank control group was subcutaneously injected with normal saline, and mice in the other groups were subcutaneously injected with ISO at a dose of 40 mg/kg (modeling was performed 2 hours after drug administration), for a total of 7 times.
Myocardial enzyme CK-MB detection: After the administration ended, blood was collected from the animals by enucleation. The blood was left to stand at room temperature for 2 hours, and then centrifuged at 3500 rpm for 20 minutes to separate the serum. The content of CK-MB in the serum was determined according to the instructions of the ELISA kit.

Rat H9C2 cardiomyocytes [2] = conditions: 50 μM Ang II 24 h, MTT 570 nm
Protocol: (§3) Rat H9C2 cardiomyocytes in the logarithmic growth phase were seeded at a density of 7×10^4 cells/mL into 96-well plates, with 100 μL per well. […] After 24 hours of culture, the drug treatment groups were respectively added with 50 μM Ang II and the corresponding concentration of the drug. The Ang II model group was added with 50 μM Ang II and an equal volume of DMSO, and the blank control group was added with an equal volume of DMSO. Then, the cells were cultured for another 24 hours. After removing the supernatant, 100 μL of MTT solution (0.5 mg/mL) was added to each well, and the plates were placed in an incubator for 4 hours. After removing the supernatant again, 150 μL of DMSO was added to each well, and the mixture was shaken and mixed evenly for 10 minutes. The absorbance was measured at 570 nm using a microplate reader to calculate the cell viability.
(§4) Cell viability (%)=[(As−Ab)/(Ac−Ab)]×100% • As: Experimental well (culture medium containing cells, MTT, Ang II); • Ac: Control well (culture medium containing cells, MTT, without Ang II); • Ab: Blank well (culture medium without cells, MTT, without Ang II).

Rat H9C2 cardiomyocytes [3] = assay: cells; conditions: H9c2, 24 h, read-out: Cell viability
Protocol: as §3, §4

[4] = system: mice with isoproterenol (ISO)-induced ischemic heart disease; assay: ISO-induced ischemic heart disease mouse model: Ca2+ in myocardial tissue; type: in vivo
Protocol: as §1, §2
Calcium ion detection in myocardial tissue: After the experiment ended, some myocardial tissue was taken to prepare a 10% myocardial tissue homogenate with ultrapure water. The homogenate was centrifuged at 1200 rpm for 20 minutes at 4° C. to separate the supernatant of the myocardial tissue homogenate. The calcium ion content was determined according to the kit instructions; protein quantification was performed using the BCA protein assay method.

Rat H9C2 cardiomyocytes [5] = conditions: 800 μM ISO 24 h, MTT 570 nm
Protocol: Rat H9C2 cardiomyocytes in the logarithmic growth phase were seeded into 96-well plates at a density of 7×10^4 cells/mL, with 100 μL per well. […] After 24 hours of culture, the drug groups were treated with 800 μM ISO and the corresponding concentrations of drugs. The ISO model group received 800 μM ISO and an equal volume of DMSO, and the blank control group received an equal volume of DMSO. The cells were then cultured for another 24 hours. After removing the supernatant, 100 μL MTT solution (0.5 mg/mL) was added to each well and incubated in the cell culture incubator for 4 hours. After removing the supernatant, 150 μL DMSO was added to each well, mixed by shaking for 10 minutes, and the absorbance was measured at 570 nm using a microplate reader to calculate cell viability. Cell viability (%)=[(As−Ab)/(Ac−Ab)]×100%. As: Experimental well (medium with cells, MTT, ISO); Ac: Control well (medium with cells, MTT, without ISO); Ab: Blank well (medium without cells, MTT, without ISO).

[6] = system: mice with isoproterenol (ISO)-induced ischemic heart disease; assay: ISO-induced ischemic heart disease mouse model: serum ANP and NT-proBNP (ELISA); type: in vivo; conditions: ISO 40 mg/kg s.c. 7 times
Protocol: as §1, §2
Detection of Myocardial Hypertrophy/Heart Failure Biomarkers: After the drug administration ended, the animals' eyes were enucleated to collect blood. The blood was left to stand at room temperature for 2 hours, and then centrifuged at 3500 rpm for 20 minutes to separate the serum. The contents of serum ANP and NT-proBNP were determined according to the instructions of the ELISA kit.

H9C2 cardiomyocytes [7] = assay: Angiotensin II (Ang II)-induced cardiomyocyte hypertrophy model, crystal violet, cell surface area; type: cell-based, rat; conditions: for surface area of a single cardiomyocyte, View 1 / surface area of a single cardiomyocyte, View 2 / surface area of a single cardiomyocyte, View 3 / surface area of a single cardiomyocyte, View 4 / surface area of a single cardiomyocyte, View 5 / Myocardial surface area: 40 μM Ang II 24 h; for surface area of a single cardiomyocyte, View 1: field of view 1; for surface area of a single cardiomyocyte, View 2: field of view 2; for surface area of a single cardiomyocyte, View 3: field of view 3; for surface area of a single cardiomyocyte, View 4: field of view 4; for surface area of a single cardiomyocyte, View 5: field of view 5; for Myocardial surface area: mean of 5 views
Protocol: Adjust the H9C2 cardiomyocytes in the logarithmic growth phase to a density of 1.2×10^5 cells/well and inoculate them into six-well plates. […] After culturing for 24 hours, the drug administration groups are added with 40 μM Ang II and the corresponding concentrations of drugs. The Ang II+diltiazem 10 μM group is added with 40 μM Ang II and 10 μM diltiazem. The Ang II model group is added with 40 μM Ang II and an equal volume of DMSO. The blank control group is added with an equal volume of DMSO. Then, continue culturing for 24 hours. Discard the culture medium, wash the cells 3 times with PBS. Add 1 mL of methanol to each well and fix the cells at −20° C. for 20 minutes, and then let them return to room temperature. After discarding the methanol, add 1 mL of 0.5% crystal violet staining solution to each well and stain for 10 minutes. Wash the cells with clean water and take pictures under an inverted microscope. Randomly select fields of view for photographing. Use Image J software to measure the sum of the surface areas of all cardiomyocytes in the field of view and count the number of cells in the field of view at the same time to obtain the surface area of each cardiomyocyte. The surface area of a single cardiomyocyte=the sum of the surface areas of all cardiomyocytes in the field of view/the number of cardiomyocytes in the field of view.

H9C2 cardiomyocytes [8] = conditions: 6 h hypoxia, 12 h reoxygenation, CCK 450 nm
Protocol: (§5) H9C2 cardiomyocytes in the logarithmic growth phase were seeded into 96-well plates at a density of 7×10^4 cells/mL, with 100 μL per well.
(§6) After 24 hours of culture, the culture medium of the H/R and drug-treated groups was replaced with serum-free glucose-free DMEM medium (100 μL per well). The cells were then placed in an anaerobic incubator and cultured under hypoxic conditions in a 37° C. cell culture incubator. After 6 hours, the supernatant of the H/R and drug-treated groups was removed and replaced with high-glucose medium containing 10% fetal bovine serum (100 μL per well). Each drug-treated group received the corresponding concentration of the drug, while the H/R model group and the blank control group received an equal volume of DMSO.
(§7) After removing the supernatant, 100 μL of CCK solution (the volume of CCK accounted for 10% of the DMEM culture medium volume) was added to each well. The cells were cultured in the cell culture incubator for 1 hour, and the absorbance was measured at 450 nm using a microplate reader to calculate the cell viability. Cell viability was calculated as follows: Cell viability (%)=(Experimental well-Blank well)/(Control well-Blank well)×100%.

H9C2 cardiomyocytes [9] = assay: cells; conditions: Rattus norvegicus, H9c2, read-out: Cell viability
Protocol: as §5, §6, §7

[10] = 0.1 mg/kg intragastric once a day 11 days
[11] = 0.5 mg/kg intragastric once a day 11 days
[12] = 2 mg/kg intragastric once a day 11 days

O=c1c(Cc2ccc3c(c2)OCO3)coc2cc(O)cc(O)c12 [Formula I]
CK-MB [1, 10]: 14.86 ± 2.90 ng/mL
CK-MB [1, 11]: 13.71 ± 2.75 ng/mL
CK-MB [1, 12]: 15.05 ± 2.49 ng/mL
OD (Rat H9C2 cardiomyocytes [2]; 0.1 μM): 0.809 ± 0.060
OD (Rat H9C2 cardiomyocytes [2]; 0.3 μM): 0.780 ± 0.046
OD (Rat H9C2 cardiomyocytes [2]; 1 μM): 0.791 ± 0.043
OD (Rat H9C2 cardiomyocytes [2]; 3 μM): 0.816 ± 0.035
OD (Rat H9C2 cardiomyocytes [2]; 10 μM): 0.823 ± 0.048
viability at 0.1 µM (Rat H9C2 cardiomyocytes [3]): 75.1%
viability at 0.3 µM (Rat H9C2 cardiomyocytes [3]): 72.5%
viability at 1 µM (Rat H9C2 cardiomyocytes [3]): 73.5%
viability at 3 µM (Rat H9C2 cardiomyocytes [3]): 75.9%
viability at 10 µM (Rat H9C2 cardiomyocytes [3]): 76.4%
Ca^2+ [4, 10]: 0.050 ± 0.008 mmol/gprot
Ca^2+ [4, 11]: 0.046 ± 0.010 mmol/gprot
Ca^2+ [4, 12]: 0.058 ± 0.009 mmol/gprot
OD (Rat H9C2 cardiomyocytes [5]; 0.1 μM): 0.983 ± 0.144
OD (Rat H9C2 cardiomyocytes [5]; 0.3 μM): 0.929 ± 0.105
OD (Rat H9C2 cardiomyocytes [5]; 1 μM): 0.969 ± 0.065^###&&
OD (Rat H9C2 cardiomyocytes [5]; 3 μM): 0.926 ± 0.045
OD (Rat H9C2 cardiomyocytes [5]; 5 μM): 0.807 ± 0.088
OD (Rat H9C2 cardiomyocytes [5]; 10 μM): 0.839 ± 0.091^###&
ANP [6, 10]: 301.02 ± 58.98 pg/mL
NT-proBNP [6, 10]: 39.35 ± 2.83 pg/mL
ANP [6, 11]: 295.85 ± 57.72 pg/mL
NT-proBNP [6, 11]: 43.52 ± 6.06 pg/mL
ANP [6, 12]: 289.01 ± 50.17 pg/mL
NT-proBNP [6, 12]: 40.47 ± 7.15 pg/mL
number of cardiomyocytes (decrease in cell number caused by AngII) (H9C2 cardiomyocytes [7]; 0.1 μM, 0.5 μM and 1 μM, 40 μM AngII 24 h): significantly improve the decrease in cell number caused by AngII
surface area of a single cardiomyocyte, View 1 (H9C2 cardiomyocytes [7]; 0.1 μM): 362.68 μm^2
surface area of a single cardiomyocyte, View 2 (H9C2 cardiomyocytes [7]; 0.1 μM): 351.69 μm^2
surface area of a single cardiomyocyte, View 3 (H9C2 cardiomyocytes [7]; 0.1 μM): 344.78 μm^2
surface area of a single cardiomyocyte, View 4 (H9C2 cardiomyocytes [7]; 0.1 μM): 338.55 μm^2
surface area of a single cardiomyocyte, View 5 (H9C2 cardiomyocytes [7]; 0.1 μM): 410.64 μm^2
Myocardial surface area (H9C2 cardiomyocytes [7]; 0.1 μM): 361.67 ± 25.76^### μm^2
surface area of a single cardiomyocyte, View 1 (H9C2 cardiomyocytes [7]; 0.5 μM): 404.40 μm^2
surface area of a single cardiomyocyte, View 2 (H9C2 cardiomyocytes [7]; 0.5 μM): 360.65 μm^2
surface area of a single cardiomyocyte, View 3 (H9C2 cardiomyocytes [7]; 0.5 μM): 322.34 μm^2
surface area of a single cardiomyocyte, View 4 (H9C2 cardiomyocytes [7]; 0.5 μM): 283.2 μm^2
surface area of a single cardiomyocyte, View 5 (H9C2 cardiomyocytes [7]; 0.5 μM): 334.96 μm^2
Myocardial surface area (H9C2 cardiomyocytes [7]; 0.5 μM): 341.11 ± 40.33^### μm^2
surface area of a single cardiomyocyte, View 1 (H9C2 cardiomyocytes [7]; 1 μM): 312.97 μm^2
surface area of a single cardiomyocyte, View 2 (H9C2 cardiomyocytes [7]; 1 μM): 300.38 μm^2
surface area of a single cardiomyocyte, View 3 (H9C2 cardiomyocytes [7]; 1 μM): 328.43 μm^2
surface area of a single cardiomyocyte, View 4 (H9C2 cardiomyocytes [7]; 1 μM): 331.13 μm^2
surface area of a single cardiomyocyte, View 5 (H9C2 cardiomyocytes [7]; 1 μM): 303.72 μm^2
Myocardial surface area (H9C2 cardiomyocytes [7]; 1 μM): 315.33 ± 12.53^### μm^2
OD (H9C2 cardiomyocytes [8]; 0.1 μM): 0.630 ± 0082
OD (H9C2 cardiomyocytes [8]; 0.3 μM): 0.628 ± 0.061
OD (H9C2 cardiomyocytes [8]; 1 μM): 0.576 ± 0.063
OD (H9C2 cardiomyocytes [8]; 3 μM): 0.620 ± 0.069
OD (H9C2 cardiomyocytes [8]; 5 μM): 0.566 ± 0.074^(p = 0.07)
OD (H9C2 cardiomyocytes [8]; 10 μM): 0.575 ± 0.091
viability at 0.1 µM (H9C2 cardiomyocytes [9]): 60.6%
viability at 0.3 µM (H9C2 cardiomyocytes [9]): 60.3%
viability at 1 µM (H9C2 cardiomyocytes [9]): 55.4%
viability at 3 µM (H9C2 cardiomyocytes [9]): 59.6%
viability at 5 µM (H9C2 cardiomyocytes [9]): 54.4%
viability at 10 µM (H9C2 cardiomyocytes [9]): 55.3%
